# From ChEMBL document CHEMBL4382235, “Design, synthesis and biological evaluation of novel 1-phenyl phenanthridin-6(5H)-one derivatives as anti-tumor agents targeting TOPK” (Eur J Med Chem, 2019)
# Columns and labels:
# Test in all cases: cells
# A549 = conditions: Homo sapiens, A549, 72 h
# Description: Antiproliferative activity against human A549 cells after 72 hrs by MTT assay
# HCT-116 = conditions: Homo sapiens, HCT-116, 72 h
# Description: Antiproliferative activity against human HCT116 cells after 72 hrs by MTT assay
# HCT-15 = conditions: Homo sapiens, HCT-15, 72 h
# Description: Antiproliferative activity against human HCT15 cells after 72 hrs by MTT assay
Structure (SMILES),IC50 (A549),IC50 (HCT-116),IC50 (HCT-15)
Cc1cc(O)c(-c2ccc([C@@H](C)N)cc2)c2c1[nH]c(=O)c1c(O)cccc12,82.5 nM,102 nM,96.7 nM
Cc1cc(O)c(-c2ccc([C@@H](C)CN)cc2)c2c1[nH]c(=O)c1c(N(C)C)cccc12,> 1000 nM,> 1000 nM,
Cc1cc(O)c(-c2ccc(C3(CN(C)C)CC3)cc2)c2c1[nH]c(=O)c1c(O)cccc12,406 nM,141 nM,
Cc1cc(O)c(-c2ccc([C@@H](C)N)cc2)c2c1[nH]c(=O)c1ccccc12,920 nM,> 1000 nM,> 1000 nM
CN(C)CC1(c2ccc(-c3c(O)cc(Cl)c4[nH]c(=O)c5c(O)cccc5c34)cc2)CC1,898 nM,> 1000 nM,
C[C@@H](CN(C)C)c1ccc(-c2c(O)cc(Cl)c3[nH]c(=O)c4ccccc4c23)cc1,> 1000 nM,> 1000 nM,> 1000 nM
Cc1cc(O)c(-c2ccc([C@@H](C)CN)cc2)c2c1[nH]c(=O)c1c(F)cccc12,110 nM,438 nM,> 1000 nM
C[C@@H](N)c1ccc(-c2c(O)cc(Cl)c3[nH]c(=O)c4c(O)cccc4c23)cc1,554 nM,720 nM,
Cc1cc(O)c(-c2ccc([C@@H](C)N)cc2)c2c1[nH]c(=O)c1c(C)cccc12,187 nM,242 nM,505 nM
COc1cc(C)c2[nH]c(=O)c3ccccc3c2c1-c1ccc([C@@H](C)CN)cc1,360 nM,357 nM,278 nM
Cc1cc(O)c(-c2ccc([C@@H](C)CN)cc2)c2c1[nH]c(=O)c1sccc12,19.5 nM,18.9 nM,187 nM
Cc1cc(O)c(-c2ccc(C3(CN)CC3)cc2)c2c1[nH]c(=O)c1c(O)cccc12,136 nM,44.7 nM,
Cc1cc(O)c(-c2ccc([C@@H](C)CN(C)C)cc2)c2c1[nH]c(=O)c1c(O)cccc12,113 nM,215 nM,76 nM
COc1cc(C)c2[nH]c(=O)c3ccccc3c2c1-c1ccc([C@@H](C)N)cc1,> 1000 nM,> 1000 nM,
C[C@@H](CN(C)C)c1ccc(-c2c(O)cc(Cl)c3[nH]c(=O)c4c(O)cccc4c23)cc1,554 nM,534 nM,
Cc1cc(O)c(-c2ccc([C@@H](C)N(C)C)cc2)c2c1[nH]c(=O)c1c(O)cccc12,128 nM,396 nM,162 nM
C[C@@H](CN)c1ccc(-c2c(O)cc(Cl)c3[nH]c(=O)c4ccccc4c23)cc1,> 1000 nM,636 nM,309 nM
Cc1ccc2c(c1)c(=O)[nH]c1c(C)cc(O)c(-c3ccc([C@@H](C)N(C)C)cc3)c12,> 1000 nM,> 1000 nM,
C[C@@H](CN)c1ccc(-c2c(O)cc(Cl)c3[nH]c(=O)c4c(O)cccc4c23)cc1,103 nM,372 nM,
Cc1ccc2c(c1)c(=O)[nH]c1c(C)cc(O)c(-c3ccc([C@@H](C)CN(C)C)cc3)c12,> 1000 nM,830 nM,
C[C@H](c1ccc(-c2c(O)cc(Cl)c3[nH]c(=O)c4c(O)cccc4c23)cc1)N(C)C,516 nM,> 1000 nM,
Cc1ccc2c(c1)c(=O)[nH]c1c(C)cc(O)c(-c3ccc([C@@H](C)CN)cc3)c12,> 1000 nM,962 nM,
